The subject of the assay is pERK after EGF stimulation in DLD1 cells. Put plainly: ERK phosphorylation assay (alphascreen pERK). Type of assay: cell-based. The following applies: Homo sapiens, DLD-1, 2 h compound, 200 ng/ml hEGF for 5 minutes, read-out: ERK phosphorylation inhibition IC50. The procedure:
Compounds were tested for their ability to inhibit pERK after EGF stimulation in DLD1 cells. Cells were seeded at 0.2 million cells per well in 96 well cell binding tissue culture plate in 100 μL complete media and were allowed to settle overnight (16 to 20 h). On the following day, cells were treated with various concentrations of test compounds for 2 h followed by stimulation with 200 ng/ml hEGF (diluted in PBS) for 5 minutes. Cells were then washed once with PBS and lysed in freshly prepared lysis buffer (provided with alphascreen surefire ERK1/2 p-T202/Y204 assay kit, cat no: TGRESB10K, Perkin Elmer). Lysis was carried out in plate shaker for 10-15 mins. Lysate was transferred to […] white opti-plate (Perkin Elmer) and alphascreen for pERK was carried out as per manufacturer's instructions. Plate was read after 2 h incubation in plate shaker at […] 300 RPM, 25-28° C. The difference between the unstimulated and stimulated Vehicle control is considered as 100% ERK phosphorylation, and % inhibition of compounds is calculated accordingly.
For orientation: IC50 means the concentration needed to halve the response being measured. `Cc1nc(N[C@H](C)c2cccc(C(F)(F)C(C)(C)O)c2F)c2cc3c(cc2n1)C(C)(C)C(=O)N3C1CC1` [Compound 65, (R)-6-cyclopropyl-4-((1-(3-(1,1-difluoro-2-hydroxy-2-methylpropyl)-2-fluorophenyl)ethyl)amino)-2,8,8-trimethyl-6,8-dihydro-7H-pyrrolo[2,3-g]quinazolin-7-one]: the IC50 was in the range of 1 to 200 nM. The figure for `Cc1nc(N[C@H](C)c2cccc(C(F)(F)[C@@](C)(O)CN(C)C)c2F)c2cc3c(cc2n1)C(C)(C)C(=O)N3C` (racemic) [Compound 129b, 4-(((R)-1-(3-((S/R)-3-(dimethylamino)-1,1-difluoro-2-hydroxy-2-methylpropyl)-2-fluorophenyl)ethyl)amino)-2,6,8,8-tetramethyl-6,8-dihydro-7H-pyrrolo[2,3-g]quinazolin-7-one] is 1 to 200 nM; for `Cc1nc(N[C@H](C)c2cc(N)cc(C(F)(F)F)c2)c2cc3c(cc2n1)OCCN3CC1CCOC1` (single isomer, unassigned) [Compound 43] it is 1 to 200 nM. The result for `Cc1nc(N[C@H](C)c2cccc(C(F)(F)[C@](C)(O)CO)c2F)c2cc3c(cc2n1)C(C)(C)C(=O)N3C` (single isomer, unassigned) [Compound 76b] reads 201 to 500 nM; that for `Cc1nc(N[C@H](C)c2cccc(C(F)(F)C(C)(C)O)c2F)c2cc3c(cc2n1)C(C)(F)C(=O)N3C` (single isomer, unassigned) [Compound 116a], 201 to 500 nM. With `Cc1nc(N[C@H](C)c2cccc(C(F)(F)C(C)(C)O)c2F)c2cc3c(cc2n1)n(C)c(=O)c(=O)n3C` [Compound 40, (R)-4-((1-(3-(1,1-Difluoro-2-hydroxy-2-methylpropyl)-2-fluorophenyl)ethyl)amino)-2,6,9-trimethyl-6,9-dihydropyrazino[2,3-g]quinazoline-7,8-dione], the IC50 lay in the range of 201 to 500 nM. The result for `COC1(C)C(=O)N(C)c2cc3nc(C)nc(N[C@H](C)c4cc(N)cc(C(F)(F)F)c4)c3cc21` (mixture of isomers) [Compound 137, 4—(((R)-1-(3-amino-5-(trifluoromethyl)phenyl)ethyl)amino)-6-methoxy-2,6,8-trimethyl-6,8-dihydro-7H-pyrrolo[3,2-g]quinazolin-7-one] reads 1 to 200 nM; that for `CCN1C(=O)C(C)(C)Oc2cc3nc(C)nc(N[C@H](C)c4cccc(C(F)(F)C(C)(C)O)c4F)c3cc21` [Compound 41, (R)-4-((1-(3-(1,1-difluoro-2-hydroxy-2-methylpropyl)-2-fluorophenyl)ethyl)amino)-6-ethyl-2,8,8-trimethyl-6H-[1,4]oxazino[3,2-g]quinazolin-7(8H)-one], 201 to 500 nM; that for `Cc1nc(NC(C)c2cc(N)cc(C(F)F)c2)c2cc3c(cc2n1)OCC(=O)N3C` (single isomer, unassigned) [Compound 5, (R/S)-4-((1-(3-Amino-5-(difluoromethyl)phenyl)ethyl)amino)-2,6-dimethyl-6H-[1,4]oxazino[3,2-g]quinazolin-7(8H)-one], 1 to 200 nM. For the compound `CNC[C@](C)(O)C(F)(F)c1cccc([C@@H](C)Nc2nc(C)nc3cc4c(cc23)N(C)C(=O)C4(C)C)c1F` (racemic) [Compound 130b, 4-(((R)-1-(3-((S/R)-1,1-difluoro-2-hydroxy-2-methyl-3-(methylamino)propyl)-2-fluorophenyl)ethyl)amino)-2,6,8,8-tetramethyl-6,8-dihydro-7H-pyrrolo[2,3-g]quinazolin-7-one], the IC50 was in the range of 1 to 200 nM. In the case of `COCCC1(C)C(=O)N(C)c2cc3c(N[C@H](C)c4cccc(C(F)(F)C(C)(C)O)c4F)nc(C)nc3cc21` (single isomer, unassigned) [Compound 123b], the IC50 fell in the range of 1 to 200 nM. On to `Cc1nc(N[C@H](C)c2cccc(C(F)(F)C(C)(C)O)c2)c2cc3c(cc2n1)OC(C)(C)C(=O)N3C` [Compound 57, (R)-4-((1-(3-(1,1-difluoro-2-hydroxy-2-methylpropyl)phenyl)ethyl)amino)-2,6,8,8-tetramethyl-6H-[1,4]oxazino[3,2-g]quinazolin-7(8H)-one], for which the IC50 is 1 to 200 nM. The figure for `CCc1nc(N[C@H](C)c2cc(N)cc(C(F)(F)F)c2)c2cc3c(cc2n1)OCC(=O)N3C` [Compound 14, (R)-4-((1-(3-amino-5-(trifluoromethyl)phenyl)ethyl)amino)-2-ethyl-6-methyl-6H-[1,4]oxazino[3,2-g]quinazolin-7(8H)-one] is 1 to 200 nM; for `CO[C@]1(C(F)(F)F)C(=O)N(C)c2cc3c(N[C@H](C)c4cccc(C(F)(F)C(C)(C)O)c4F)nc(C)nc3cc21` (single isomer, unassigned) [Compound 125b] it is 1 to 200 nM. Regarding `CC[C@@]1(OC)C(=O)N(C)c2cc3c(N[C@H](C)c4cccc(C(F)(F)C(C)(C)O)c4F)nc(C)nc3cc21` (single isomer, unassigned) [Compound 126b], the IC50 fell in the range of 201 to 500 nM. With `Cc1nc(N[C@H](C)c2cccc(C(F)(F)C(C)(C)O)c2F)c2cc3c(cc2n1)N(C)C(C)(C)N3C` [Compound 108, (R)-1,1-difluoro-1-(2-fluoro-3-(1-((1,2,2,3,6-pentamethyl-2,3-dihydro-1H-imidazo[4,5-g]quinazolin-8-yl)amino)ethyl)phenyl)-2-methylpropan-2-ol], the IC50 was in the range of 201 to 500 nM.

Take `CCC1(OC)C(=O)N(C)c2cc3c(N[C@H](C)c4cccc(C(F)(F)C(C)(C)O)c4F)nc(C)nc3cc21` (single isomer, unassigned) [Compound 126a]: the IC50 was in the range of 1 to 200 nM.

`COCC(C)(O)C(F)(F)c1cccc([C@@H](C)Nc2nc(C)nc3cc4c(cc23)N(C)C(=O)C4(C)C)c1F` (single isomer, unassigned) [Compound 127a]: the IC50 fell in the range of 201 to 500 nM.

In the case of `CO[C@]1(C)C(=O)N(C)c2cc3c(N[C@H](C)c4cccc(C(F)(F)[C@](C)(O)CO)c4F)nc(C)nc3cc21` (racemic) [Compound 103, (S/R)-4-(((R/S)-1-(3-((R/S)-1,1-difluoro-2,3-dihydroxy-2-methylpropyl)-2-fluorophenyl)ethyl)amino)-8-methoxy-2,6,8-trimethyl-6,8-dihydro-7H-pyrrolo[2,3-g]quinazolin-7-one], the IC50 lay within 201 to 500 nM. For `Cc1nc(N[C@H](C)c2cccc(C3CCCNC3)c2F)c2cc3c(cc2n1)C(C)(C)C(=O)N3C` (mixture of isomers) [Compound 133, (R & S)-4-(((R)-1-(2-fluoro-3-((R & S)-piperidin-3-yl)phenyl)ethyl)amino)-2,6,8,8-tetramethyl-6,8-dihydro-7H-pyrrolo[2,3-g]quinazolin-7-one], the IC50 was in the range of 201 to 500 nM. As to `Cc1nc(N[C@H](C)c2cccc(C(F)(F)C(C)(C)O)c2F)c2cc3c(cc2n1)C(F)(F)C(=O)N3C` [Compound 117, (R)-4-((1-(3-(1,1-difluoro-2-hydroxy-2-methylpropyl)-2-fluorophenyl)ethyl)amino)-8,8-difluoro-2,6-dimethyl-6,8-dihydro-7H-pyrrolo[2,3-g]quinazolin-7-one], the IC50 was in the range of 201 to 500 nM. For `Cc1nc(N[C@H](C)c2cccc(C(F)(F)C(C)(C)O)c2F)c2cc3c(cc2n1)oc(=O)n3C` [Compound 111, (R)-8-((1-(3-(1,1-difluoro-2-hydroxy-2-methylpropyl)-2-fluorophenyl)ethyl)amino)-1,6-dimethyloxazolo[4,5-g]quinazolin-2(1H)-one], the IC50 is 201 to 500 nM.

For `COCCC1(OC)C(=O)N(C)c2cc3c(N[C@H](C)c4cccc(C(F)(F)C(C)(C)O)c4F)nc(C)nc3cc21` (single isomer, unassigned) [Compound 132a], the IC50 was 1 to 200 nM.

For the compound `Cc1nc(N[C@H](C)c2cccc(C(F)(F)C(C)(C)O)c2F)c2cc3c(cc2n1)C(C)(C)C(=O)N3C(C)C` [Compound 78, (R)-4-((1-(3-(1,1-difluoro-2-hydroxy-2-methylpropyl)-2-fluorophenyl)ethyl)amino)-6-isopropyl-2,8,8-trimethyl-6H-pyrrolo[2,3-g]quinazolin-7(8H)-one], the IC50 was in the range of 1 to 200 nM. As for `Cc1nc(N[C@H](C)c2cccc(C(F)(F)C(C)(C)O)c2F)c2cc3c(cc2n1)OC(C)(C)C(=O)N3C` [Compound 33, (R)-4-((1-(3-(1,1-Difluoro-2-hydroxy-2-methylpropyl)-2-fluorophenyl)ethyl)amino)-2,6,8,8-tetramethyl-6H-[1,4]oxazino[3,2-g]quinazolin-7(8H)-one], the IC50 was in the range of 1 to 200 nM.

For `COC1(C(F)(F)F)C(=O)N(C)c2cc3c(N[C@H](C)c4cccc(C(F)(F)C(C)(C)O)c4F)nc(C)nc3cc21` (single isomer, unassigned) [Compound 125a], the IC50 lay in the range of 201 to 500 nM. The result for `Cc1nc(N[C@H](C)c2cccc(C(F)(F)C(C)(C)O)c2F)c2cc3c(cc2n1)[C@](C)(F)C(=O)N3C` (single isomer, unassigned) [Compound 116b] reads 1 to 200 nM; that for `Cc1nc(N[C@H](C)c2cccc(C(F)(F)C(C)(C)O)c2F)c2cc3c(cc2n1)OCC(=O)N3C` [Compound 3, (R)-4-((1-(3-(1,1-difluoro-2-hydroxy-2-methylpropyl)-2-fluorophenyl)ethyl)amino)-2,6-dimethyl-6H-[1,4]oxazino[3,2-g]quinazolin-7(8H)-one], 201 to 500 nM; that for `Cc1nc(NC(C)c2cc(N)cc(C(F)F)c2)c2cc3c(cc2n1)C(C)(C)C(=O)N3C` (single isomer, unassigned) [Compound 69, (R/S)-4-((1-(3-amino-5-(difluoromethyl)phenyl)ethyl)amino)-2,6,8,8-tetramethyl-6H-pyrrolo[2,3-g]quinazolin-7(8H)-one], 1 to 200 nM.

For the origin of these results see patent publication US20260209247A1, “Substituted Tricyclic Compounds” (Lupin Limited, priority 2019, published 2026).
